Source: patent US20140057950A1, “DERIVATIVES OF ENGLERIN FOR THE TREATMENT OF CANCER” (MAX-PLANCK-GESELLSCHAFT ZUR FORDERUNG DE WISSENSCHAFTEN E.V., priority 2010, published 2014)

System: human kidney carcinoma cell line A498
Assay: Cell proliferation assay (WST-1), A498
Type: cell-based
Settings: A498 cells, 48 hours treatment
Protocol: A498 cells were purchased from German Collection of Microorganisms and Cell Cultures, Germany. RC-124 cell line was purchased from CLS, Germany. Minimum Essential Medium (MEM), McCoy's 5a and Dulbecco's Modified Eagle's Medium (DMEM) were purchased from PAA, Austria. Fetal calf serum was purchased from Invitrogen, Germany. Non-essential amino acids and sodium pyruvate were purchased from Sigma-Aldrich, Germany.
The human kidney carcinoma cell line A498 was cultured in Minimum Essential Medium (MEM, with Earl's salts). The African green monkey cell line BSC-1 and the human embryonic kidney cell line HEK293 were maintained in Dulbecco's Modified Eagle's Medium (DMEM). The human kidney cell line RC-124 was cultured in McCoy's 5a medium. All media were supplemented with 10% fetal calf serum and penicillin and streptomycin. The cells were maintained at 37° C. in a 5% CO2 humidified atmosphere. Cells were discarded after 20 passages.
Cell proliferation was determined as a function of the metabolic activity by means of the cell proliferation reagent WST-1 (Roche, Mannheim Germany). 4000 cells were seeded in quadruplicates into the wells of 96 well plates and were allowed to attach for 24 hours prior to treatment with different compound concentrations for 48 hours. All samples contained 0.1% DMSO. After the treatment, the WST-1 reagent was added to the cells according to the manufacturer's protocol. The absorbance was measured with the Inifinite® M200 plate reader (Tecan, Austria) at 450/690 nm. Mean values (n=4) were used to generate dose-response curves by fitting to a four-parameter IC50 equation. The IC50 values for each compound were calculated with the software GraFit 5.0.
The following IC50 values were obtained for the human kidney carcinoma cell line A498. Very similar IC50 values were obtained for the African green monkey cell line BSC-1, the human embryonic kidney cell line HEK293 and the human kidney cell line RC-124.

| SMILES | IC50 |
| --- | --- |
| CC(C)C12C[C@@H](OC(=O)CO)[C@@](C)(O1)[C@@H]1CC[C@@H](C)[C@H]1[C@@H]2OC(=O)/C=C/C1CCCCC1 [Compound 15] | < 30 nM |
| C/C(=C\C(=O)O[C@H]1[C@@H]2[C@H](C)CC[C@H]2[C@]2(C)OC1(C(C)C)C[C@H]2OC(=O)CO)c1ccccc1 [Compound 17] | < 30 nM |
| CC(C)[C@@]12C[C@@H](OC(=O)CO)C(C)(O1)[C@@H]1CC[C@@H](C)[C@H]1[C@@H]2OC(=O)C1CCC2CCCCC2C1 (stereo partly drawn) [Compound 38] | 30 to 100 nM |
| CC(C)C12C[C@@H](OC(=O)CO)[C@@](C)(O1)[C@@H]1CC[C@@H](C)[C@H]1[C@@H]2OC(=O)c1ccc(Cl)cc1 [Compound 29] | 500 to 5000 nM |
| COCC(=O)O[C@@H]1C[C@]2(C(C)C)OC1(C)[C@@H]1CC[C@@H](C)[C@H]1[C@@H]2OC(=O)/C=C/c1ccccc1 [Compound 43] | 500 to 5000 nM |
| CC(C)C12C[C@@H](OC(=O)[C@H](C)O)[C@@](C)(O1)[C@@H]1CC[C@@H](C)[C@H]1C2OC(=O)/C=C/c1ccccc1 (stereo partly drawn) [Compound 52] | 500 to 5000 nM |
| CCC12C[C@@H](OC(=O)CO)[C@@](C)(O1)[C@@H]1CC[C@@H](C)[C@H]1[C@@H]2OC(=O)/C=C/c1ccccc1 [Compound 13] | 500 to 5000 nM |
| C#CC[C@@H](O)C(=O)O[C@@H]1CC2(C(C)C)O[C@@]1(C)[C@@H]1CC[C@@H](C)[C@H]1C2OC(=O)c1ccc2c(c1)CCCC2 (stereo partly drawn) [Compound 56] | 500 to 5000 nM |
| CC(C)C12C[C@@H](OC(=O)CO)[C@@](C)(O1)[C@@H]1CC[C@@H](C)[C@H]1[C@@H]2OC(=O)/C=C/c1c(F)cccc1Cl [Compound 24] | 30 to 100 nM |
| CC(C)C12C[C@@H](OC(=O)CO)[C@@](C)(O1)[C@@H]1CC[C@@H](C)[C@H]1[C@@H]2OC(=O)c1ccc([N+](=O)[O-])cc1 [Compound 30] | 500 to 5000 nM |
| C#CCOCC(=O)O[C@@H]1C[C@]2(C(C)C)OC1(C)[C@@H]1CC[C@@H](C)[C@H]1[C@@H]2OC(=O)/C=C/c1ccccc1 [Compound 46] | 500 to 5000 nM |
| C#CCCCC(=O)O[C@@H]1C[C@]2(C(C)C)OC1(C)[C@@H]1CC[C@@H](C)[C@H]1[C@@H]2OC(=O)/C=C/c1ccccc1 [Compound 45] | 500 to 5000 nM |
| C#CC[C@@H](O)C(=O)O[C@@H]1CC2(C(C)C)O[C@@]1(C)[C@@H]1CC[C@@H](C)[C@H]1C2OC(=O)c1ccc2ccccc2c1 (stereo partly drawn) [Compound 57] | 500 to 5000 nM |
| C#CC[C@@H](O)C(=O)O[C@@H]1CC2(C(C)C)O[C@@]1(C)[C@@H]1CC[C@@H](C)[C@H]1C2OC(=O)c1ccc(C2(C(F)(F)F)N=N2)cc1 (stereo partly drawn) [Compound 58] | 500 to 5000 nM |

The next lines start with the values.

| IC50 | SMILES |
| --- | --- |
| 500 to 5000 nM | C/C(=C\c1ccccc1)C(=O)O[C@H]1[C@@H]2[C@H](C)CC[C@H]2[C@]2(C)OC1(C(C)C)C[C@H]2OC(=O)CO [Compound 26] |
| 500 to 5000 nM | C[C@@H]1CC[C@@H]2[C@@H]1[C@H](OC(=O)/C=C/c1ccccc1)[C@]1(C)C[C@@H](OC(=O)CO)[C@@]2(C)O1 [Compound 14] |
| 500 to 5000 nM | CC(C)C12C[C@@H](OC(=O)CO)[C@@](C)(O1)[C@@H]1CC[C@@H](C)[C@H]1[C@@H]2OC(=O)/C=C/c1ccc(Cl)cc1 [Compound 19] |
| 500 to 5000 nM | CC(C)C12C[C@@H](OC(=O)CO)[C@@](C)(O1)[C@@H]1CC[C@@H](C)[C@H]1[C@@H]2OC(=O)/C=C/c1ccc(F)cc1 [Compound 18] |
| 500 to 5000 nM | CC(C)C12C[C@@H](OC(=O)CO)[C@@](C)(O1)[C@@H]1CC[C@@H](C)[C@H]1[C@@H]2OC(=O)/C=C/c1ccc2c(c1)OCO2 [Compound 23] |
| 30 to 100 nM | CC(C)C12C[C@@H](OC(=O)[C@@H](C)O)[C@@](C)(O1)[C@@H]1CC[C@@H](C)[C@H]1C2OC(=O)c1ccc2ccccc2c1 (stereo partly drawn) [Compound 55] |
| 30 to 100 nM | CC(C)[C@@]12C[C@@H](OC(=O)CO)C(C)(O1)[C@@H]1CC[C@@H](C)[C@H]1[C@@H]2OC(=O)c1ccc(C2(C(F)(F)F)N=N2)cc1 [Compound 41] |
| 100 to 500 nM | CC(C)C12C[C@@H](OC(=O)[C@@H](C)O)[C@@](C)(O1)[C@@H]1CC[C@@H](C)[C@H]1C2OC(=O)/C=C/c1ccccc1 (stereo partly drawn) [Compound 53] |
| < 30 nM | Cc1c(C(=O)O[C@H]2[C@@H]3[C@H](C)CC[C@H]3C3(C)O[C@@]2(C(C)C)C[C@H]3OC(=O)CO)ccc2ccccc12 [Compound 39] |
| 100 to 500 nM | CC(C)C12C[C@@H](OC(=O)[C@H](C)O)[C@@](C)(O1)[C@@H]1CC[C@@H](C)[C@H]1C2OC(=O)c1ccc2ccccc2c1 (stereo partly drawn) [Compound 54] |
| 100 to 500 nM | CC(C)C12C[C@@H](OC(=O)CO)[C@@](C)(O1)[C@@H]1CC[C@@H](C)[C@H]1[C@@H]2OC(=O)c1ccc(Cl)c(Cl)c1 [Compound 31] |
| < 30 nM | CC(C)C12C[C@@H](OC(=O)CO)[C@@](C)(O1)[C@@H]1CC[C@@H](C)[C@H]1[C@@H]2OC(=O)c1ccc2ccccc2c1 [Compound 16] |
| 100 to 500 nM | C#CCCCC(=O)OCC(=O)O[C@@H]1C[C@]2(C(C)C)OC1(C)[C@@H]1CC[C@@H](C)[C@H]1[C@@H]2OC(=O)/C=C/c1ccccc1 [Compound 44] |
| < 30 nM | Cc1c(C(=O)O[C@H]2[C@@H]3[C@H](C)CC[C@H]3C3(C)O[C@@]2(C(C)C)C[C@H]3OC(=O)CO)ccc2c1CCCC2 [Compound 40] |
| 30 to 100 nM | CC(C)[C@@]12C[C@@H](OC(=O)CO)C(C)(O1)[C@@H]1CC[C@@H](C)[C@H]1[C@@H]2OC(=O)C1CCc2ccccc2C1 (stereo partly drawn) [Compound 37] |
| < 30 nM | CC(C)[C@@]12C[C@@H](OC(=O)CO)C(C)(O1)[C@@H]1CC[C@@H](C)[C@H]1[C@@H]2OC(=O)c1ccc2c(c1)CCCC2 [Compound 36] |
